Results as given in patent US8969297B2, “Methods and compositions for the induction of hypothermia” (priority 2009, dated 2015).

Assays:
[1] = system: asphyxial cardiac arrest rat model; test: Survival in rat outcome model of asphyxial cardiac arrest; type: in vivo; settings: for Survival days: individual rats; for effect on mortality / neurological deficit score: compound alone under normothermic conditions
Protocol: (§1) The outcome model of asphyxial cardiac arrest in rats was used for these studies and has been described previously (Katz et al. (1995) J Cereb Blood Flow Metab 15:1032-1039). Briefly, rats were anesthetized with 4% isoflurane, intubated and mechanically ventilated, anesthesia was titrated and vessel catheters inserted. Cardiac arrest was induced by apneic asphyxia with chemical paralysis (vecuronium 2 mg/kg) and discontinuation of ventilation. After 10 minutes of asphyxial cardiac arrest, rats were resuscitated with mechanical ventilation, 100% O2, epinephrine (0.005 mg/kg) and chest compressions. Rats were extubated two hours after resuscitation and placed in a humidity and temperature controlled incubator. Rats were sacrificed by an overdose (5%) of inhaled isoflurane and then perfusion fixed with 100 ml of 4% paraformaldehyde at a perfusion pressure of 100 mmHg. Multiple coronal sections (10 μm thickness) of the brain (Paxinos et al. (1995) J Neurosci Methods 13:139-143) were cryosectioned for future immunostaining and histological evaluation.
(§2) Rats underwent ten minutes of asphyxial cardiac arrest and resuscitation. Five minutes after the return of spontaneous circulation (ROSC), rats were administered 15 ml/kg of iced normal (0.9%) saline (5° C.) (forced hypothermia) or half of the indicated treatment (at room temperature, 21° C.) intravenously over 20 minutes. The first infusion was followed immediately by a second 20-minutee infusion (15 ml/kg) with iced saline (5° C.) for the forced hypothermia group or the second half of the indicated treatment (at 21° C.).
(§3) The rat outcome model of asphyxial cardiac arrest was used to test each of the components of the cocktail to determine the effects of the components on NDS and performance in the Morris Water Maze. Rats undergoing forced hypothermia and rats maintained under normothermic conditions (with 0.5 U/kg vasopressin administered) served as controls.

rats = settings: ethanol alone
Protocol: as §2

[2] = Gable (2004); cited from earlier work
[3] = system: asphyxial cardiac arrest rat model; test: Neurological deficit score (NDS) in rat model of asphyxial cardiac arrest; type: in vivo; settings: normothermic conditions; for NDS 72 hours after resuscitation: ethanol alone or vasopressin alone
Protocol: as §1, with “evaluation. […]” for “evaluation.”
The total ND score is composed of 5 components as outlined below. A normal rat has a ND score of 0% and a brain-dead rat has an ND score of 100% (Katz et al. (1995) J Cereb Blood Flow Metab 15:1032-1039).
as §2, with “Five” for “Rats underwent ten minutes of asphyxial cardiac arrest and resuscitation. Five”
as §3, with “controls. Raw survival and NDS data is shown in Table 1 and Table 2 provides a summary of the survival and NDS data.” for “controls.”

[4] = 20 mcg/kg, normothermic conditions
[5] = 0.005 mg/kg, normothermic conditions
[6] = 0.8 g/kg, normothermic conditions
[7] = 1 mg/kg, normothermic conditions
[8] = 0.25 U/kg, normothermic conditions

## NCCc1ccc(O)c(O)c1 [Dopamine, dopamine]
[1]; [4]
  Average Survival days: 1 days
  Survival days: 1 days

## CNC[C@H](O)c1ccc(O)c(O)c1 [Epinephrine, epinephrine]
[1]; [5]
  Average Survival days: 1 days
  Survival days: 1 days
[1]; 0.01 mg/kg, normothermic conditions
  Average Survival days: 1 days

## CCO [Ethanol, ethanol]
rats
  minimum dose able to reliably induce hypothermia: about 0.75 g/kg
rats; higher doses do not further lower the temperature
  dose at which the hypothermic effect plateaus: 3000 mg/kg
rats; maintained during infusion
  temperature reached: about 33 °C
[2]
  acute ingestion considered toxic: above 10 g/kg
[1]; 0.5 g/kg, normothermic conditions
  Average Survival days: 1 days
[1]; [6]
  Average Survival days: 1 days
  Survival days: 1 days
[1]; 1 g/kg, normothermic conditions
  Average Survival days: 1.5 days
[1]; 1.5 g/kg, normothermic conditions
  Average Survival days: 3 days
[1]; 2 g/kg, normothermic conditions
  Average Survival days: 3.33 days
[1]; 2.5 g/kg, normothermic conditions
  Average Survival days: 1 days
[1]; 3 g/kg, normothermic conditions
  Average Survival days: 1 days
[1]
  effect on mortality / neurological deficit score: mild reduction in mortality
[3]; 1.5 g/kg
  NDS day 3, median neurological deficit score: NA, (36.5)
[3]; 2 g/kg
  NDS day 3, median neurological deficit score: (31)
[3]; ethanol alone 1 g/kg, 1.5 g/kg and 2 g/kg
  neurological deficit score at 72 hours after resuscitation: reduced the neurological deficit score
[3]
  NDS 72 hours after resuscitation: 31

## CCN(CC)CC(=O)Nc1c(C)cccc1C [Lidocaine, 2-(diethylamino)-N-(2,6-dimethylphenyl)acetamide]
[1]; [7]
  Average Survival days: 1 days
  Survival days: 1 days

## Cc1[nH]c(=O)c(C#N)cc1-c1ccncc1 [Milrinone]
[1]; 0.3 mg/kg, normothermic conditions
  Average Survival days: 1 days

## CC(=O)N[C@@H](CS)C(=O)O [N-Acetylcysteine, (2R)-2-acetamido-3-sulfanylpropanoic acid]
[1]; 50 mg/kg, normothermic conditions
  Average Survival days: 1.5 days
[1]; 150 mg/kg, normothermic conditions
  Average Survival days: 3 days
[1]; 300 mg/kg, normothermic conditions
  Average Survival days: 2.5 days
[3]; 150 mg/kg
  NDS day 3, median neurological deficit score: (38)
[3]; 300 mg/kg
  NDS day 3, median neurological deficit score: NA, (40)
[3]; 300 mg/kg, individual rats
  NDS day 3: NA, 40

## NC(=O)CC[C@@H]1NC(=O)[C@H](Cc2ccccc2)NC(=O)[C@H](Cc2ccc(O)cc2)NC(=O)[C@@H](N)CSSC[C@@H](C(=O)N2CCC[C@H]2C(=O)N[C@@H](CCCN=C(N)N)C(=O)NCC(N)=O)NC(=O)[C@H](CC(N)=O)NC1=O [Vasopressin]
[1]; 0.5 U/kg, normothermic conditions
  Average Survival days: 5 days
[1]; 0.75 U/kg, normothermic conditions
  Average Survival days: 3 days
[1]
  effect on mortality / neurological deficit score: minimal effect on mortality or the neurological deficit score
[1]; vasopressin alone, normothermic conditions
  enhancement of survival: approximately 3 fold
[3]; 0.5 U/kg
  NDS day 3, median neurological deficit score: (36)
[3]; 0.5 U/kg, individual rats
  NDS day 7: NA, NA, 22
[3]; 0.5 U/kg, single surviving rat (summary table)
  NDS day 7: NA, NA, 22
[3]; 0.75 U/kg
  NDS day 3, median neurological deficit score: (30)
[3]
  NDS 72 hours after resuscitation: 30
[3]; vasopressin alone
  neurological deficits 72 hours after resuscitation: reduced neurological deficits

## Insulin: antihyperglycemic compound
[1]; [8]
  Average Survival days: 2 days
  Survival days: 2 days
